Test [1] deals with CgmycLAO. It counts as biochemical, Infundibulicybe geotropa.
Test [2] relates to CgLAO. It counts as biochemical, Infundibulicybe geotropa.

With `CC(C)C[C@H](N)C(=O)O` [L-Leu], the Km in test [1] turned out to be 1520 ± 60 µM; in test [2] it was 550 ± 60 µM.

The values are drawn from publication PMC7248570 (Frontiers in Microbiology, 2020).
